# Experimental data taken from patent US11541132B2, “Radiolabeled compounds” (Hoffmann-La Roche Inc., priority 2017, dated 2023).
# Where two headings read alike, the source gives them in different places.
# Key:
# [1] = target: T1, native aSyn aggregates in A30P transgenic mouse brain sections (Homo sapiens, UniProt P37840, A30P); experiment: aSyn in vitro displacement assay ([3H]Example-3 autoradiography); type: binding, mutant human aSyn gene); settings: read-out: PCT_INHIB A30P @ 1 μM (% displacement of [3H]Example-3)
# T1 construct: from tissue; host or cells: brain sections (midbrain and pons as ROI) of A30P transgenic mice, line B6.D2-Tg(Thy1-SNCA*30P)31Pjk
# [2] = target: T2, native Aβ aggregates in human AD brain tissue sections (Homo sapiens, UniProt P05067); experiment: Aβ in vitro displacement assay (selectivity counterscreen, [3H]Example 3 autoradiography); type: binding; settings: read-out: sel. counterscreen PCT_INHIB AD @ 1 μM (% displacement of [3H]Example 3)
# T2 construct: native Aβ aggregates in human AD brain tissue samples; from tissue; host or cells: human AD brain tissue sections
# [3] = 1 μM compound, 3 nM [3H]Example-3, A30P transgenic mouse brain sections
# [4] = 1 μM compound, 3 nM [3H]Example 3, human AD brain sections
# T2 sequence (P05067 672-713 limits assumed): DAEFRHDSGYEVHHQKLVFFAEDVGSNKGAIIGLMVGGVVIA
SMILES,"inhibition at 1 µM [1, 3] [%]","inhibition at 1 µM [2, 4] [%]",inhibition at 1 µM [1] [%],inhibition at 1 µM [2] [%]
"COc1ccc(C(=O)Nc2ccc(N3CCN(c4ccc(OC)cc4)CC3)cc2)cc1 [Example 110, 4-Methoxy-N-[4-[4-(4-methoxyphenyl)piperazin-1-yl]phenyl]benzamide]",99,99,,
"COc1ccc(C(=O)Nc2ccc(N3CCN(c4cccc(F)c4)CC3)cc2)cc1 [Example 104, N-[4-[4-(3-Fluorophenyl)piperazin-1-yl]phenyl]-4-methoxy-benzamide]",98,100,,
"Cc1ccc(C(=O)Nc2cnc(N3CCN(c4ccccn4)CC3)nc2)nc1 [Example 75, 5-Methyl-N-(2-(4-(pyridin-2-yl)piperazin-1-yl)pyrimidin-5-yl)picolinamide]",95,95,,
"COc1ccc(C(=O)Nc2cnc(N3CCN(c4ccccn4)CC3)cn2)c(F)c1 [Example 84, 2-Fluoro-4-methoxy-N-(5-(4-(pyridin-2-yl)piperazin-1-yl)pyrazin-2-yl)benzamide]",88,100,,
"O=C(Nc1ccc(N2CCN(c3ccccn3)CC2)cc1)c1ccc2c(c1)OCO2 [Example 15, N-(4-(4-(Pyridin-2-yl)piperazin-1-yl)phenyl)benzo[d][1,3]dioxole-5-carboxamide]",94,98,,
"N#Cc1ccc(N2CCN(c3ccc(NC(=O)c4ccc(OCCOCCF)cc4)cc3)CC2)nc1 [Example 121, N-(4-(4-(5-cyanopyridin-2-yl)piperazin-1-yl)phenyl)-4-(2-(2-fluoroethoxy)ethoxy)benzamide]",87,86,,
"COc1ccc(C(=O)Nc2ccc(N3CCN(c4ccccn4)CC3)nn2)c(F)c1 [Example 40, 2-Fluoro-4-methoxy-N-[6-[4-(2-pyridyl)piperazin-1-yl]pyridazin-3-yl]benzamide]",86,92,,
"N#Cc1ccc(N2CCN(c3ccc(NC(=O)c4ccncn4)cc3)CC2)cc1 [Example 165, N-(4-(4-(4-Cyanophenyl)piperazin-1-yl)phenyl)pyrimidine-4-carboxamide]",86,90,,
"O=C(Nc1ccc(N2CCN(c3ccccn3)CC2)cc1)c1ccc(OCF)cc1 [Example 135, 4-(fluoromethoxy)-N-[4-(4-pyridin-2-ylpiperazin-1-yl)phenyl]benzamide]",97,98,,
"COc1ccc(C(=O)Nc2ccc(N3CCN(c4ccccn4)CC3)cn2)nc1 [Example 76, 5-Methoxy-N-(5-(4-(pyridin-2-yl)piperazin-1-yl)pyridin-2-yl)picolinamide]",94,91,,
"COc1ccc(C(=O)Nc2ccc(N3CCN(c4ccc(C#N)cc4)CC3)cc2)c(F)c1 [Example 114, N-[4-[4-(4-Cyanophenyl)piperazin-1-yl]phenyl]-2-fluoro-4-methoxy-benzamide]",91,92,,
"COc1ccc(C(=O)Nc2ccc(N3CCN(c4ccccc4C#N)CC3)cc2)cc1 [Example 70, N-{4-[4-(2-Cyanophenyl)piperazin-1-yl]phenyl}-4-methoxybenzamide]",84,64,,
"COc1ccc(C(=O)Nc2ccc(N3CCN(c4cc(Cl)c(C#N)cn4)CC3)cc2)cc1 [Example 152, N-(4-(4-(4-Chloro-5-cyanopyridin-2-yl)piperazin-1-yl)phenyl)-4-methoxybenzamide]",90,88,,
"COc1ccc(C(=O)Nc2ccc(N3CCN(c4cc(C)ccn4)CC3)cc2)cc1 [Example 102, 4-Methoxy-N-[4-[4-(4-methyl-2-pyridyl)piperazin-1-yl]phenyl]benzamide]",89,88,,
"CC(C)(C)[Si](C)(C)OC(CF)COc1ccc(C(=O)Nc2ccc(N3CCN(c4cc(C#N)ccn4)CC3)cc2)cc1 (racemic) [Example 128, rac-4-(2-((tert-Butyldimethylsilyl)oxy)-3-fluoropropoxy)-N-(4-(4-(4-cyanopyridin-2-yl)piperazin-1-yl)phenyl)benzamide]",,,92,98
"N#Cc1ccc(N2CCN(c3ccc(NC(=O)c4ccc(OCC(O)CF)cc4)cc3)CC2)cc1 (racemic) [Example 131, rac-N-(4-(4-(4-Cyanophenyl)piperazin-1-yl)phenyl)-4-(3-fluoro-2-hydroxypropoxy)benzamide]",88,90,,
"COc1ccc(C(=O)Nc2ccc(N3CCN(c4ccccn4)CC3)cc2)nc1 [Example 78, 5-Methoxy-N-(4-(4-(pyridin-2-yl)piperazin-1-yl)phenyl)picolinamide]",98,94,,

SMILES,"inhibition at 1 µM [1, 3] [%]","inhibition at 1 µM [2, 4] [%]",inhibition at 1 µM [1] [%],inhibition at 1 µM [2] [%]
"COc1ccc(C(=O)Nc2cnc(N3CCN(c4ccc(C#N)cc4)CC3)nc2)cc1 [Example 97, N-(2-(4-(4-Cyanophenyl)piperazin-1-yl)pyrimidin-5-yl)-4-methoxybenzamide]",97,106,,
"O=C(Nc1ccc(N2CCN(c3nccs3)CC2)cc1)c1ccc(OCCOCCOCCF)cc1 [Example 120, 4-[2-[2-(2-Fluoroethoxy)ethoxy]ethoxy]-N-[4-(4-thiazol-2-ylpiperazin-1-yl)phenyl]benzamide]",81,93,,
"N#Cc1ccc(N2CCN(c3ccc(NC(=O)c4ccc(OCCOCCOCCF)cc4)cc3)CC2)cc1 [Example 123, N-[4-[4-(4-Cyanophenyl)piperazin-1-yl]phenyl]-4-[2-[2-(2-fluoroethoxy)ethoxy]ethoxy]benzamide]",80,95,,
"COc1ccc(C(=O)Nc2ccc(N3CCN(c4ccc(C#N)nc4)CC3)cc2)cc1 [Example 154, N-(4-(4-(6-Cyanopyridin-3-yl)piperazin-1-yl)phenyl)-4-methoxybenzamide]",98,96,,
"O=C(Nc1ccc(N2CCN(c3cccnc3)CC2)cc1)c1ccc(OCF)cc1 [Example 134, 4-(fluoromethoxy)-N-(4-(4-(pyridin-3-yl)piperazin-1-yl)phenyl)benzamide]",94,93,,
"COc1ccc(C(=O)Nc2ccc(N3CCN(c4ccc(C#N)cn4)CC3)cn2)cc1 [Example 95, N-(5-(4-(5-Cyanopyridin-2-yl)piperazin-1-yl)pyridin-2-yl)-4-methoxybenzamide]",83,95,,
"Cc1ccc(C(=O)Nc2ccc(N3CCN(c4ccccn4)CC3)cn2)cc1 [Example 45, 4-Methyl-N-(5-(4-(pyridin-2-yl)piperazin-1-yl)pyridin-2-yl)benzamide]",97,98,,
"COc1ccc(C(=O)Nc2ccc(N3CCN(c4ccc(C#N)cn4)CC3)c(C)c2)cc1 [Example 113, N-[4-[4-(5-Cyano-2-pyridyl)piperazin-1-yl]-3-methyl-phenyl]-4-methoxy-benzamide]",87,79,,
"CN1CCN(c2ccc(C(=O)Nc3ccc(N4CCN(c5ccccn5)CC4)cc3)cc2)CC1 [Example 6, 4-(4-Methylpiperazin-1-yl)-N-(4-(4-(pyridin-2-yl)piperazin-1-yl)phenyl)benzamide]",83,95,,
"COc1ccc(C(=O)Nc2ccc(N3CCN(c4ccc(C#N)cn4)CC3)cc2)cc1C [Example 170, N-(4-(4-(5-Cyanopyridin-2-yl)piperazin-1-yl)phenyl)-4-methoxy-3-methylbenzamide]",86,82,,
"O=C(Nc1ccc(N2CCN(c3cccnc3)CC2)cc1)c1ccc(N2CCOCC2)cc1 [Example 39, 4-Morpholino-N-(4-(4-(pyridin-3-yl)piperazin-1-yl)phenyl)benzamide]",87,69,,
"COc1cccc(C(=O)Nc2ccc(N3CCN(c4ccc(C#N)cn4)CC3)cc2)n1 [Example 91, N-(4-(4-(5-Cyanopyridin-2-yl)piperazin-1-yl)phenyl)-6-methoxypicolinamide]",85,54,,
"COc1ccc(C(=O)Nc2ccc(N3CCN(c4ccc(C#N)c(OC)c4)CC3)cc2)cc1 [Example 140, N-(4-(4-(4-Cyano-3-methoxyphenyl)piperazin-1-yl)phenyl)-4-methoxybenzamide]",94,93,,
"N#Cc1ccc(N2CCN(c3ccc(NC(=O)c4ccc(OCC(O)CF)cc4)cc3)CC2)nc1 (racemic) [Example 129, rac-N-(4-(4-(5-Cyanopyridin-2-yl)piperazin-1-yl)phenyl)-4-(3-fluoro-2-hydroxypropoxy)benzamide]",86,94,,
"COc1ccc(C(=O)Nc2cnc(N3CCN(c4ccccn4)CC3)nc2)cc1 [Example 59, 4-Methoxy-N-(2-(4-(pyridin-2-yl)piperazin-1-yl)pyrimidin-5-yl)benzamide]",85,97,,
"COc1ccc(C(=O)Nc2ccc(N3CCN(c4ccccn4)CC3)cc2)c(F)c1 [Example 1, 2-Fluoro-4-methoxy-N-(4-(4-(pyridin-2-yl)piperazin-1-yl)phenyl)benzamide]",100,95,,
"COc1ccc(C(=O)Nc2ccc(N3CCN(c4cc(OC)ccn4)CC3)cc2)cc1 [Example 82, 4-Methoxy-N-[4-[4-(4-methoxy-2-pyridyl)piperazin-1-yl]phenyl]benzamide]",91,106,,
